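48-hour exposure; five concentrations; linearly interpolated endpoints. Definition used: TGI = concentration required for complete inhibition of growth.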
System: P388/ADR leukemia
Test: NCI tumour cell line growth inhibition, 48 h

Structure (SMILES): CC[C@@]1(O)C(=O)OCc2c1cc1n(c2=O)Cc2cc3c(N)cccc3nc2-1
- TGI: 0.375 µM

Source: PubChem BioAssay (NCI)
